Calls of active or inactive are those of the source.
How the values were obtained:
H9c2 = experiment: cells; format: functional, cell-based; conditions: Rattus norvegicus, H9c2, Myocardium;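 further: confirmatory concentration-response retest of ultra-high-throughput screening hits for modulation of myocardial damage; cell death induced by hydrogen peroxide oxidative stress; compound pretreatment for 60 min then peroxide exposure for 2 h; potency is for protecting the cells against peroxide damage rather than for killing them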
Vero = Vero cell cytotoxicity, cytotoxicity control for flavivirus capping enzyme inhibitors (AID 588742); format: functional; conditions: Chlorocebus sabaeus
HEK293 = experiment: inhibitors of LMP1-driven NF-kB reporter, dose response, cell-based, HEK293, luciferase, cherry-pick (AID 588343); format: functional; conditions: Homo sapiens
[1] = molecular target: T1, Sentrin-specific protease 6 (Homo sapiens, UniProt Q9GZR1); format: functional;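 further: Luminescence-based dose-response confirmatory assay of SENP6 inhibition, following up an ultra-high-throughput screen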
T1 sequence (Q9GZR1 whole entry): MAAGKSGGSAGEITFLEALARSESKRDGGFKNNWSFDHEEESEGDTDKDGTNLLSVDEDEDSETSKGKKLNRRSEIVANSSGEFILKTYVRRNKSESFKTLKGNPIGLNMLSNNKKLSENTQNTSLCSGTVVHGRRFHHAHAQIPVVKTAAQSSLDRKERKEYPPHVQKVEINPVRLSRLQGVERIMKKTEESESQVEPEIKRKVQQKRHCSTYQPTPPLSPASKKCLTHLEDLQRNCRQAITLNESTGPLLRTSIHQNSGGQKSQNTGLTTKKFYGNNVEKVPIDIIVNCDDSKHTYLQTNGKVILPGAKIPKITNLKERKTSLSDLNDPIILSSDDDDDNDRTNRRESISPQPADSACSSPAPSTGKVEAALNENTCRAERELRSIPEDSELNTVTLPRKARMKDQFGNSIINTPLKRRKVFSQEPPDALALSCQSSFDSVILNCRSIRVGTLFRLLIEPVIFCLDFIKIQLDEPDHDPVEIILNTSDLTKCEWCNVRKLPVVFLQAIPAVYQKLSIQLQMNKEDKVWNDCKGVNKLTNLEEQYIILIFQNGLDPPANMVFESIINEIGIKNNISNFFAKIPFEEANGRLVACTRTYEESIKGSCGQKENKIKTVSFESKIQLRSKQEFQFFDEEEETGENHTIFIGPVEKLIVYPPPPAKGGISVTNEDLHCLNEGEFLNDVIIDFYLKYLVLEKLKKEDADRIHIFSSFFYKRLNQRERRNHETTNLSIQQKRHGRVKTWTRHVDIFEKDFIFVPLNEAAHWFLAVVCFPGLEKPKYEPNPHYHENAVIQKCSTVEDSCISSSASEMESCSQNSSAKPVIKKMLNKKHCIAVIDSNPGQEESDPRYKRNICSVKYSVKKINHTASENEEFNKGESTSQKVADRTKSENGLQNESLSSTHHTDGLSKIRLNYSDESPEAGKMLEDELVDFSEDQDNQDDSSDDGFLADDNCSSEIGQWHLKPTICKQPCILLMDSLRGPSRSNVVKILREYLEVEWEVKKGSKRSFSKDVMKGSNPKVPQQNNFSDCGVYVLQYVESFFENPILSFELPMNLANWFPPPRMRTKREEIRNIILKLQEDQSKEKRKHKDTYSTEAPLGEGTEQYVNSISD

[2] = molecular target: T2, Sentrin-specific protease 8 (Homo sapiens, UniProt Q96LD8); format: functional;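 further: luminescence read-out of SENP8 inhibition, dose-response confirmation following an ultra-high-throughput screen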
T2 sequence (Q96LD8 whole entry): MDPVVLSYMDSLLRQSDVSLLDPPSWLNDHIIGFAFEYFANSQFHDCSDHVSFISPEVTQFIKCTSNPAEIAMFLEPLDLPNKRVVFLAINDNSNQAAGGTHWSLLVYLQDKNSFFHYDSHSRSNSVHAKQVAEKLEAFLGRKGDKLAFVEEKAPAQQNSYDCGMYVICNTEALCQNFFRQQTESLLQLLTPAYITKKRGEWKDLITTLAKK

Caspase-3 = molecular target: T3, Caspase-3 (Homo sapiens, UniProt P42574); format: functional;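 further: Dose-response selectivity test against caspase-3 for candidate inhibitors of sentrin-specific proteases (SENPs)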
T3 sequence (P42574 whole entry): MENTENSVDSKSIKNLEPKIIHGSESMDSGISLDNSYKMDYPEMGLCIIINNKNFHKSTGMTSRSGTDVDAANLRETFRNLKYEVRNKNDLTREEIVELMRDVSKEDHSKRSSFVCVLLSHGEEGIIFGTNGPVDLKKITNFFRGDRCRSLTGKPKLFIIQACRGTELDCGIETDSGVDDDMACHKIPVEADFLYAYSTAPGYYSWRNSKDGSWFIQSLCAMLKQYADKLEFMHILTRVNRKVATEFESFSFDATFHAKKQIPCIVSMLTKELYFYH

[3] = molecular target: T4, Sentrin-specific protease 7 (Homo sapiens, UniProt Q9BQF6); format: functional;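 further: Luminescence-based dose-response confirmation of ultra-high-throughput screening hits, measuring inhibition of SENP7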
T4 sequence (Q9BQF6 whole entry): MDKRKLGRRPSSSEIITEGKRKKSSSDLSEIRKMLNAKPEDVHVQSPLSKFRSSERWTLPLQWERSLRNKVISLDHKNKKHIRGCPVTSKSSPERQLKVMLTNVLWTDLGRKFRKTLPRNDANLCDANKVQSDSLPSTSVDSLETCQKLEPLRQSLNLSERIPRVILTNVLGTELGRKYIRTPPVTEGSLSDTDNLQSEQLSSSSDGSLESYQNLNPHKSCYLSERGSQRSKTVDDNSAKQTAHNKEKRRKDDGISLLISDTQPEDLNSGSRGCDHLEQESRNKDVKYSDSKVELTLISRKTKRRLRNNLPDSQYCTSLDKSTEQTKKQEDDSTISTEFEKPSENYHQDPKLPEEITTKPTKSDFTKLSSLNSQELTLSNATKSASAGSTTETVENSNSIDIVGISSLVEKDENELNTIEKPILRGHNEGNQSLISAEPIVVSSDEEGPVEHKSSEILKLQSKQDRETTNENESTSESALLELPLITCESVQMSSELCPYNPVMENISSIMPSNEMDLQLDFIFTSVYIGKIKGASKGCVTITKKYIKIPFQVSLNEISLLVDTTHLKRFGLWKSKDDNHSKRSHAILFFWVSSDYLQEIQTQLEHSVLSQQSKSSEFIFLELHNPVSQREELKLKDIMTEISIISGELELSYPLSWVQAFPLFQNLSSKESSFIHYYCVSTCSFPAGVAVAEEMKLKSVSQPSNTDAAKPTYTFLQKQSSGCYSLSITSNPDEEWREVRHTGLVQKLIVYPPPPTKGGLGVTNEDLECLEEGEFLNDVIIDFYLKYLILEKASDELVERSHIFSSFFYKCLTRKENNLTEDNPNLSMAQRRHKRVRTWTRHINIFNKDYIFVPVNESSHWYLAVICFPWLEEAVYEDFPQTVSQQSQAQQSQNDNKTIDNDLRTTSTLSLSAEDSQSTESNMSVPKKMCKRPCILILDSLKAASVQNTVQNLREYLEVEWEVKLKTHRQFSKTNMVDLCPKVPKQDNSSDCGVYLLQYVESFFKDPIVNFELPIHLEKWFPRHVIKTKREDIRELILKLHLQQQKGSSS

[4] = HEp-2 cell cytotoxicity, dose response, cytotoxicity control for RSV inhibitor project, HTS (AID 2410); format: functional; conditions: human respiratory syncytial virus

| SMILES | IC50 (H9c2) | CC50 (Vero) | AC50 (HEK293) | IC50 [1] | IC50 [2] | IC50 (Caspase-3) | IC50 [3] | CC50 [4] |
| --- | --- | --- | --- | --- | --- | --- | --- | --- |
| Oc1ccc2oc3c(c2c1/C=N/Cc1ccncc1)CCCC3 | > 79 µM (inactive) | > 40 µM (active) | – | – | – | – | – | – |
| CCOCCCn1c(=S)[nH]c2ncccc2c1=O | – | – | 135 µM (active) | – | – | – | – | – |
| Cc1cc(C=C2C(=O)c3ccccc3C2=O)c(C)n1C | – | – | – | 56.1 µM (active) | 74.6 µM (active) | 35.2 µM (active) | 24.6 µM (active) | – |
| O=C(c1cc(-c2ccc(Cl)cc2Cl)on1)N1CCCCCC1 | – | – | – | 18.5 µM (active) | 20.5 µM (active) | 17.2 µM (active) | 6.51 µM (active) | 39.3 µM (active) |
